Laboratory results as given in a compilation of properties of binary mixtures (doi:10.1021/acs.jced.2c00033).

Experiment: xn = mol fraction of the nth substance listed
Conditions: 100 kPa

O + CCCC[n+]1ccn(C)c1.[Br-]
x2 = 0
Conditions	viscosity [mPa·s]
313.15 K	0.684
323.15 K	0.58
333.15 K	0.492
343.15 K	0.429

O + CCCn1cc[n+](C)c1.[Br-]
x2 = 0
Conditions	viscosity [mPa·s]
303.15 K	0.834
313.15 K	0.684
323.15 K	0.58

O + CC[n+]1ccn(C)c1.[Br-]
x2 = 0
Conditions	viscosity [mPa·s]
313.15 K	0.684
333.15 K	0.492

CCCC[n+]1ccn(C)c1.[Br-] + O
viscosity [mPa·s]
Conditions	x1 = 0.05	x1 = 0.0992	x1 = 0.1481	x1 = 0.1979	x1 = 0.2517	x1 = 0.3882
303.15 K	–	–	5.93	8.78	12	–
313.15 K	1.56	2.58	4.3	6.08	8.65	–
323.15 K	1.27	2.06	3.43	4.79	6.49	–
333.15 K	–	–	2.71	–	–	–
343.15 K	0.888	1.37	2.2	2.91	3.89	7.98

CCCn1cc[n+](C)c1.[Br-] + O
viscosity [mPa·s]
Conditions	303.15 K	313.15 K	323.15 K	333.15 K	343.15 K
x1 = 0.0497	1.67	1.31	–	0.899	0.767
x1 = 0.0992	3.1	2.39	1.9	1.55	1.29
x1 = 0.1984	7.88	5.81	4.46	3.53	2.81
x1 = 0.4005	–	19.6	13.9	10.2	7.82
x1 = 0.5756	87.4	52.6	34	23.2	16.7

CC[n+]1ccn(C)c1.[Br-] + O
viscosity [mPa·s]
Conditions	x1 = 0.049	x1 = 0.0997	x1 = 0.1466	x1 = 0.1978	x1 = 0.2501	x1 = 0.3881	x1 = 0.543
303.15 K	–	2.42	3.55	–	6.71	13	28.2
313.15 K	1.14	1.9	2.72	4.1	5.07	9.59	19.4
323.15 K	0.944	1.57	2.21	3.27	3.99	7.31	14.3
333.15 K	–	1.3	1.85	2.66	3.21	5.76	11.1
343.15 K	0.688	1.12	1.53	2.2	2.65	4.59	8.6
